Data set [1] has as its target T1, cloned human 5-HT6 receptor (Homo sapiens, UniProt P50406).
T1 construct: host or cells: HeLa cells (G-418 selected); membranes prepared from them
The experiment in a line: 5-HT6 receptor binding assay ([3H]-LSD, SPA). Conditions: membranes of Hela cells containing cloned human 5-HT6 receptor; [3H]-LSD radioligand; Ki from estimated IC50 by Cheng-Prusoff. On the procedure: Growth of Cells and Membrane Preparation
Hela cells containing the cloned human 5-HT6 receptor were acquired from Dr. David R. Sibley's laboratory in National Institute of Health (see Sibley, D. R., J. Neurochemistr, 66, 47-56, 1996). Cells were grown in high glucose Dulbecco's modified Eagle's medium, supplemented with L-glutamine, 0.5% sodium pyruvate, 0.3% penicillin-streptomycin, 0.025% G-418 and 5% Gibco fetal bovine serum and then were harvested, when confluent, in cold phosphate buffered saline.
Harvested intact cells were washed once in cold phosphate-buffered saline. The cells were pelleted and resuspended in 100 ml of cold 50 mM Tris, 5 mM EDTA and 5 mM EGTA, pH 7.4. Homogenization was with a Vir Tishear generator, 4 cycles for 30 seconds each at setting 50. The homogenized cells were centrifuged at […] for 10 minutes and the supernatant was removed. The pellet was resuspended in 100 ml of the above buffer and rehomogenized for 2 cycles. The rehomogenized cells were then centrifuged at […] for 10 minutes and the supernatant was removed. The combined supernatant (200 ml) was centrifuged at 23,000 RPM (80,000×g) for 1 hour in a Beckman Rotor (42.1 Ti). […]
The radioligand binding assay used [^3H]-lysergic acid diethylamide (LSD). […] The plates were then loaded into counting cassettes and counted in a Wallac MicroBeta Trilux scintillation counter. […]

Where a name gives a salt, the structure may show the parent alone.

As usually defined, the melting point is the temperature of the solid-liquid transition. One may read the Ki as a dissociation constant, usually derived from enzyme kinetics or from competition with a known ligand.

T1 sequence (P50406 whole entry): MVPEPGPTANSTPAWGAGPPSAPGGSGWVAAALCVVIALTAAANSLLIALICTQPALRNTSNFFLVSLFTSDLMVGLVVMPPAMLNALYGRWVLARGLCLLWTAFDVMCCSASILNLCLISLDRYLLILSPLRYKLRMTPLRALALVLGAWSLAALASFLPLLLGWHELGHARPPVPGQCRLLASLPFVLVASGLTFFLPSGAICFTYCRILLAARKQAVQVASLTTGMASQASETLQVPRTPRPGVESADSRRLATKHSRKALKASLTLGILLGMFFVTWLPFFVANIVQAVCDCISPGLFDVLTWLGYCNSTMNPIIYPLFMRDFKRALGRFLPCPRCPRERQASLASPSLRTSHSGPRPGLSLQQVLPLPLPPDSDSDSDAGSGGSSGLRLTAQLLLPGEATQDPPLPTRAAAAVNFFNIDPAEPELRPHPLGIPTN

Compound `CCNCCOc1cccc2c1c1cccc3c1n2C(c1ccccc1)CO3.O=C(O)/C=C\C(=O)O` (centres unmarked) [Example 6, N-Ethyl-2-[(1-phenyl-1,2-dihydro[1,4]oxazino[2,3,4-jk]carbazol-7-yl)oxy]-ethanamine and its maleic acid salt] came in with a melting point of 105 °C.
In the case of `NCCOc1cccc2c1c1cccc3c1n2[C@H](c1ccccc1)CO3` [Example 2, (R)−)-[(1-Phenyl-1,2-dihydro[1,4]oxazino[2,3,4-jk]carbazol-7-yl)oxy]ethanamine and its methanesulfonic acid salt], in data set [1], the Ki was 1.8 nM.
`CN(C)CCOc1cccc2c1c1cccc3c1n2C(c1ccccc1)CO3` (centres unmarked) [Example 18, N,N-dimethyl-2-[(1-phenyl-1,2-dihydro[1,4]oxazino[2,3,4-jk]carbazol-7-yl)oxy]-1-ethanamine] registered a melting point of 117 to 118 °C.
As for `CCN(CC)CCOc1cccc2c1c1cccc3c1n2C(c1ccccc1)CO3` (centres unmarked) (as salt: maleic acid salt) [Example 3, N,N-Diethyl-2-[(1-phenyl-1,2-dihydro[1,4]oxazino[2,3,4-jk]carbazol-7-yl)oxy]-1-ethanamine and its maleic acid salt], the melting point was 105 to 107 °C.
Turning to `c1ccc(C2COc3cccc4c5c(OCCN6CCNCC6)cccc5n2c34)cc1` (centres unmarked) [Example 13, 1-Phenyl-1,2-dihydro[1,4]oxazino[2,3,4-jk]carbazol-7-yl 2-(1-piperazinyl)ethyl ether], the melting point was determined as 72 °C.
As to `CN1CCN(CCOc2cccc3c2c2cccc4c2n3C(c2ccccc2)CO4)CC1` (centres unmarked) [Example 14, 2-(4-Methyl-1-piperazinyl)ethyl 1-phenyl-1,2-dihydro[1,4]oxazino[2,3,4-jk]carbazol-7-yl ether], the melting point amounted to 57 °C.
With `NCCOc1cccc2c1c1cccc3c1n2[C@H](c1ccccc1)CO3` (as salt: sulfonic acid salt) [Example 2, (R)−)-[(1-Phenyl-1,2-dihydro[1,4]oxazino[2,3,4-jk]carbazol-7-yl)oxy]ethanamine and its methanesulfonic acid salt], the melting point worked out at 236 °C.
In the case of `CC(C)NCCOc1cccc2c1c1cccc3c1n2C(c1ccccc1)CO3` (centres unmarked) [Example 5, N-isopropyl-N-{2-[(1-phenyl-1,2-dihydro[1,4]oxazino[2,3,4-jk]carbazol-7-yl)oxy]ethyl}amine and its maleic acid salt], the inhibition constant (Ki) in data set [1] was 7.8 nM.

The values above are taken from patent publication US6932961B1, “Oxazinocarbazoles for the treatment of CNS diseases” (Pharmacia & Upjohn Company, priority 2002, dated 2005).
